Assay [1] has as its target SWI/SNF-related matrix-associated actin-dependent regulator of chromatin subfamily A member 2 (Homo sapiens, UniProt P51531). Briefly: Luminescence-based cell-based high throughput dose response assay to identify activators of the function of SWI/SNF related, matrix associated, actin dependent regulator of chromatin, subfamily a, member 2 (SMARCA2, BRM). The assay is classed as functional.

The nature of assay [2]: Counterscreen for activators of the function of SWI/SNF related, matrix associated, actin dependent regulator of chromatin, subfamily a, member 2 (SMARCA2, BRM): Luminescence-based cell-based high throughput dose response assay to identify non-selective compounds using the VP16 reporter assay. The class given is functional. In general terms: Counterscreens check selectivity or assay interference.

Assay [3] in a line: viability of PTEN-deleted HCT116 cells – cell-based, HCT116 PTEN knockout, dose response (AID 1047).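 Note: HCT116 colon tumor cells with PTEN knocked out; cells exposed to compound for 60 hours before readout; potency for loss of cell viability measured by luminescence.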 The assay is classed as functional.
A short description of assay [4]: viability of HCT116 lacking mutant beta-catenin – cell-based, human colon tumor, dose response (AID 1045).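 Note: HCT116 colon tumor cells with beta catenin knocked out; cells exposed to compound for 60 hours.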 The class given is functional.
The target in assay [5] is ADP-ribosylation factor GTPase-activating protein 1 (Rattus norvegicus, UniProt Q62848). In words: Fluorescence polarization-based biochemical high throughput dose response screening assay to identify inhibitors of ADP-ribosylation factor GTPase activating protein 1 (ARFGAP1). The class given is functional. (In general: In fluorescence polarisation assays a small probe gives low polarisation when free and higher when bound to something large.)
Sequence of ADP-ribosylation factor GTPase-activating protein 1 (Q62848 whole entry): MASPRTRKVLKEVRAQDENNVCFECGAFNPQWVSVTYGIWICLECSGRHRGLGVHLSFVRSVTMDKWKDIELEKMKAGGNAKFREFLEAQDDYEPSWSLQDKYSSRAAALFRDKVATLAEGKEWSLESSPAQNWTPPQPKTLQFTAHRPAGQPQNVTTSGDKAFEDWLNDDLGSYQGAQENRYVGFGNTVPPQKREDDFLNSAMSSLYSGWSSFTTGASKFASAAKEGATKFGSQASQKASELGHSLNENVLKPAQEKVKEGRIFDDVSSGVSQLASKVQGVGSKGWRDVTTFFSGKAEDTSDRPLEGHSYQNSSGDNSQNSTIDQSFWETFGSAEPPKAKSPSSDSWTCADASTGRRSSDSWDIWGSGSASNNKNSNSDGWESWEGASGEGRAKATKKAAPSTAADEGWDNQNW

In assay [6] the target is Arf-GAP with SH3 domain, ANK repeat and PH domain-containing protein 1 (Homo sapiens, UniProt Q9ULH1). The class given is functional.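 Note: biochemical fluorescence polarization dose–response screen measuring inhibition of ASAP1; ASAP1 GAP domain stimulating GTP hydrolysis by truncated human ARF1.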
Sequence of Arf-GAP with SH3 domain, ANK repeat and PH domain-containing protein 1 (Q9ULH1 whole entry, the tested form may be a part): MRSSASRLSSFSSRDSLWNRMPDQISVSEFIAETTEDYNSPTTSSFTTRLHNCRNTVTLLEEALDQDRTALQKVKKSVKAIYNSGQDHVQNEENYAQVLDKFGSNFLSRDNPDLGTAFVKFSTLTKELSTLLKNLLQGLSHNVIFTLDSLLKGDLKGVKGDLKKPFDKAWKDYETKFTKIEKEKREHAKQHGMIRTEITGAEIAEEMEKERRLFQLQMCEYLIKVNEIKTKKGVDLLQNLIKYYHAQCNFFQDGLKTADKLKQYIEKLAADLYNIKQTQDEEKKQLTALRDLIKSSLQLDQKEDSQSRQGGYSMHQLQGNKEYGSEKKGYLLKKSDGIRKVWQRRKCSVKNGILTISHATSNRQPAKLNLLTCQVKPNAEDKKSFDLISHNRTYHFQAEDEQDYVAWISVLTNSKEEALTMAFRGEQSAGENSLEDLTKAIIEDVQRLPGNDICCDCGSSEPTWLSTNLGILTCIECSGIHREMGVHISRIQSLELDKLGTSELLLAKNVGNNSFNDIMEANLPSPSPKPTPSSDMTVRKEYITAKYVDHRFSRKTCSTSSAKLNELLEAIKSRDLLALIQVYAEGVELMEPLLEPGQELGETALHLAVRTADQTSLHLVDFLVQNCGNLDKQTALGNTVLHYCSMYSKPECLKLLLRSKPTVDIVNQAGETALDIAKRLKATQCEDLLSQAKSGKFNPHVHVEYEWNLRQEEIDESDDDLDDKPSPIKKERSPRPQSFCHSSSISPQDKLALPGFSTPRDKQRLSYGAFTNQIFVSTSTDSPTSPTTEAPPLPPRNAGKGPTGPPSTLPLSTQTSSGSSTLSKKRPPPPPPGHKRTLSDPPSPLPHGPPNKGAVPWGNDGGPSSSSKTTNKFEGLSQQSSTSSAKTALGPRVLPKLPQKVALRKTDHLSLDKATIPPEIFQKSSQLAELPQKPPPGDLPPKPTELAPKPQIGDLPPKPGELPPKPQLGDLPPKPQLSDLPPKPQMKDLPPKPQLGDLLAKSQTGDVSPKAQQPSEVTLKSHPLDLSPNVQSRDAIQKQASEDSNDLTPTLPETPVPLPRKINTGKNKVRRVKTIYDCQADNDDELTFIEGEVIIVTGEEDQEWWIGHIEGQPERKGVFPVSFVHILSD
Assay [7] can be described thus: cells. The class given is functional, cell-based.
In assay [8] the target is T1, Nuclear receptor subfamily 0 group B member 1 (Homo sapiens, UniProt P51843).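 Note: HEK293T cells transfected with SF-1 and DAX-1 plus StAR promoter luciferase reporter.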
T1 sequence (P51843 whole entry): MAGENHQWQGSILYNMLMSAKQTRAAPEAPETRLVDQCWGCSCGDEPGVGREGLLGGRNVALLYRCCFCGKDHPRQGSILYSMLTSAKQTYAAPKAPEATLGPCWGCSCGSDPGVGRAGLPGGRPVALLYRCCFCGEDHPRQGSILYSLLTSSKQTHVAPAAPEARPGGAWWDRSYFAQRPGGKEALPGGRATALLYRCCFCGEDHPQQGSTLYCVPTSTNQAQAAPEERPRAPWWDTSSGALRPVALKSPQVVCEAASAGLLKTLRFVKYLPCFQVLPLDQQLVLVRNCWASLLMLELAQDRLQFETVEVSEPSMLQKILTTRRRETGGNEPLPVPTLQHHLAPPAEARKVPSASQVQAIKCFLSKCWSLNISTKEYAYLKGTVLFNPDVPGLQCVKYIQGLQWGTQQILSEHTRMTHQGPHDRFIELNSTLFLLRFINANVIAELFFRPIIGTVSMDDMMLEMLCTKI
The class given is functional, cell-based.

Assay [9] deals with T2, Heat shock factor protein 1 (Mus musculus, UniProt P38532).
T2 sequence (P38532 whole entry): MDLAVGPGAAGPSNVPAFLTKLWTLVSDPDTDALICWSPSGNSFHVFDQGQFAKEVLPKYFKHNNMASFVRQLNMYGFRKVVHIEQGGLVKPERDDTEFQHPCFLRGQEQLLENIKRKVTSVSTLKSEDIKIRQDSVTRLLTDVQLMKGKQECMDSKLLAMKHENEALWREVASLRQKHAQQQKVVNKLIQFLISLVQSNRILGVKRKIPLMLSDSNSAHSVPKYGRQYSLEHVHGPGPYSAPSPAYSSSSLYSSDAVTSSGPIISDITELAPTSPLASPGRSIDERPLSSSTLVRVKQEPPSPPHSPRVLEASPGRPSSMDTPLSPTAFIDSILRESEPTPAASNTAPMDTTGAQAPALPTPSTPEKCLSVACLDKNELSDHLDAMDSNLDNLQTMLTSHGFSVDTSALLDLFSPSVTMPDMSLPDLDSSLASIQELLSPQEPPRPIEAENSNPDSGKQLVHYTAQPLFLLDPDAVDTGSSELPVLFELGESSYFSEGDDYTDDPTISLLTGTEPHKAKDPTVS
Briefly: enhancement of HSF1-driven luciferase signal – cell-based, NIH3T3, luminescence, dose retest, confirmation (AID 435004).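 Note: stress induced by proteasome inhibitor MG132 added 30 min after compound; luciferase reporter driven by HSF1 response element in NIH3T3 cells; actives raise luminescence as potentiators of the MG132 stress response.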 The assay is classed as functional.

The target in assay [10] is T3, High affinity choline transporter 1 (Homo sapiens, UniProt Q9GZV3).
T3 sequence (Q9GZV3 whole entry): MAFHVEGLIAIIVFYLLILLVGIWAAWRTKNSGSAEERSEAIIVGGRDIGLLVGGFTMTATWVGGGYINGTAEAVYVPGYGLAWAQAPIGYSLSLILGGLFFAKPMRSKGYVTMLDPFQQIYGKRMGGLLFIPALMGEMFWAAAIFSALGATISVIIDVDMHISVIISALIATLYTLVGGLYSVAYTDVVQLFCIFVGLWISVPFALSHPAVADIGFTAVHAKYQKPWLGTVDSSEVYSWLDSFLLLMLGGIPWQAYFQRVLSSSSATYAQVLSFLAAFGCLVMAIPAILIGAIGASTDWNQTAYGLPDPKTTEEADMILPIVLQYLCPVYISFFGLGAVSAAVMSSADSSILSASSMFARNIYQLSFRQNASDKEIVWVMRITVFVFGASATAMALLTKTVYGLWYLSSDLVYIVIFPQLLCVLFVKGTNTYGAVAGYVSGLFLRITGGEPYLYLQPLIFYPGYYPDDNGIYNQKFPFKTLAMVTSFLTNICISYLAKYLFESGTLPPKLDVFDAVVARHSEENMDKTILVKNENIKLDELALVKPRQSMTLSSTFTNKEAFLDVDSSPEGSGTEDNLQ
In words: human choline transporter blockers, potency – cell-based, 5-point CRC, membrane potential dye, dose response (AID 504840). The class given is functional.

In assay [11] the target is T4, Oxysterols receptor LXR-beta (Homo sapiens, UniProt P55055).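 Note: agonist activity at LXR measured by a cell-based luminescence readout across a dose range, run as a counterscreen for daf-12 agonists; HEK293 cells with Gal4-LXR fusion and GAL4-driven luciferase reporter; potency for activation of Gal4-LXR reporter so compounds are agonists.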
T4 sequence (P55055 whole entry): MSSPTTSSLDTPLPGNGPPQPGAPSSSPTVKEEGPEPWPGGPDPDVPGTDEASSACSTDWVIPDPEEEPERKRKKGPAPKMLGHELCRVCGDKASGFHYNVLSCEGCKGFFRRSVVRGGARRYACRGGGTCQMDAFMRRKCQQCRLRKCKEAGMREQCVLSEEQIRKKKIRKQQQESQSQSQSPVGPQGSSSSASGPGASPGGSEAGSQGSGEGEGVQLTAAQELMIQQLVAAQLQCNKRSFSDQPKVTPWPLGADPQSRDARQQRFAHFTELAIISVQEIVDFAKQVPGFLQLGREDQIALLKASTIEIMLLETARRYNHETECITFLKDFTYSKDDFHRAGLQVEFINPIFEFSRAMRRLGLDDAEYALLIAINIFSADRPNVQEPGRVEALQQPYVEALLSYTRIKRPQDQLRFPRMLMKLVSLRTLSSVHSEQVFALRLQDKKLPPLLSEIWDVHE
The class given is functional, cell-based.

Assay [12] can be described thus: Luminescence Cell-Based Dose Response HTS to Identify Inhibitors of 5'UTR Stem-Loop Driven Prion Protein mRNA Translation in H4 Neuroglioblastoma Cells. [Related pubchem assays: 1827 (Project Summary), 1813 (Primary HTS)]. The class given is functional.
Assay [13] in a line: alpha-synuclein stem-loop luciferase translation blockers – H4 neuroglioma cells, luminescence, confirmation (AID 1988). The assay is classed as functional, cell-based.
Assay [14] addresses T5, Mannose-6-phosphate isomerase (Homo sapiens, UniProt P34949).
T5 sequence (P34949 whole entry): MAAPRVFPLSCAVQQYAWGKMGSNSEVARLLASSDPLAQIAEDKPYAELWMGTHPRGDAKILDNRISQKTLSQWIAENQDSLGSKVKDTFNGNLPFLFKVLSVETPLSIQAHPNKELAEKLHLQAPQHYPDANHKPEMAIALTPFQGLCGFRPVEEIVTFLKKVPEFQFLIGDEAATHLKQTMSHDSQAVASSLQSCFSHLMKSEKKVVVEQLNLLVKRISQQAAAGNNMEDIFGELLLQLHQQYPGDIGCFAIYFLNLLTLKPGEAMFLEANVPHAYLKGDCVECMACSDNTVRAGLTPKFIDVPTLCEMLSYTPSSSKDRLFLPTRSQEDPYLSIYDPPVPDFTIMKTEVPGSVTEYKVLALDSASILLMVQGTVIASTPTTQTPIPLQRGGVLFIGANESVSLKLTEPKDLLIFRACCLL
In words: MPI inhibition at elevated mannose 6-phosphate – biochemical, fluorescence intensity, high mannose 6-phosphate, primary screen (AID 1220).

Assay [15] deals with T6, Sentrin-specific protease 8 (Homo sapiens, UniProt Q96LD8).
T6 sequence (Q96LD8 whole entry): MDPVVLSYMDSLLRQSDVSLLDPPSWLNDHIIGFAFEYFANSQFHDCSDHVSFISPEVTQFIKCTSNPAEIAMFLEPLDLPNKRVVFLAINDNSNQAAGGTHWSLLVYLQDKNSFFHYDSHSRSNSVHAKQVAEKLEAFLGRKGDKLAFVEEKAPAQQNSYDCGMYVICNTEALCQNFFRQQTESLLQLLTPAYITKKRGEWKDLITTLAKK
The assay is classed as functional.

Assay [16] deals with T6, Sentrin-specific protease 8. The class given is functional. This is another data set of the same source.
A short description of assay [17]: Luminescence Cell-Based Dose Response HTS to Identify Activators of Luciferase Translation or Activity in H4 […] Cells. [Related pubchem assays: 1829 (Project Summary), 1814 (Primary HTS)]. The class given is functional.
Assay [18] has as its system H4. In words: Luminescence Cell-Based Dose Response HTS to Identify Activators of 5'UTR Stem-Loop Driven Prion Protein mRNA Translation in H4 Neuroglioblastoma Cells. [Related pubchem assays: 1829 (Project Summary), 1814 (Primary HTS)]. The assay is classed as functional. The settings on record: Homo sapiens.
The test system of assay [19] is Streptococcus sp. 'group A'. Briefly: Streptococcus pyogenes SK(-)GAS viability under kanamycin – luminescence, BacTiterGlo, confirmation, counter-screen for streptokinase expression inhibitor project, dose response (AID 1900). The assay is classed as functional, organism-based.
The target of assay [20] is T7, Streptokinase A (Streptococcus pyogenes serotype M1, UniProt P10520).
T7 sequence (P10520 whole entry): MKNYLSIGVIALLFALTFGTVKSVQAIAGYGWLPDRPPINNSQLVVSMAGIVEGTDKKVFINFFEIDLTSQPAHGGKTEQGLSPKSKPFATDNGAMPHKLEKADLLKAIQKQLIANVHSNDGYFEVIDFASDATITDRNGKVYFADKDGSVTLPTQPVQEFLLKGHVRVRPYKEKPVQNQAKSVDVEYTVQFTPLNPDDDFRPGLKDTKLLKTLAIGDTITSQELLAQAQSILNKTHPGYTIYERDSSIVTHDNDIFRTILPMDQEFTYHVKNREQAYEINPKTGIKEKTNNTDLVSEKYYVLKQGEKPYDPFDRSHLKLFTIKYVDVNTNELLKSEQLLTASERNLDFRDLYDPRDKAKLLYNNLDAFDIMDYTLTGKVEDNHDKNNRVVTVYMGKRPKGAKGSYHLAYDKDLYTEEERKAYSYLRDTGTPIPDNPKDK
In words: viability-normalized secreted streptokinase activity reduction – plasminogen activation absorbance, OD405, dose response (AID 1914).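 Note: secreted streptokinase activity via plasminogen activation per viability signal from cell pellet.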 The class given is functional, Streptococcus pyogenes M1 GAS.

Assay [21] in a line: Trypanosoma cruzi growth suppression in host cells – NIH3T3 host cells, beta-gal luminescence, confirmation (AID 2044).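 Note: intracellular parasites grown in NIH/3T3 mouse fibroblasts as host cells; luminescent beta-galactosidase reporter signal from transgenic T. cruzi replicating inside host cells; inhibitors lower the luminescence signal.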 The class given is functional, cell-based.
Assay [22] is described as follows: NIH3T3 cell viability loss – ATP luminescence, mouse fibroblasts, counter-screen, dose response (AID 2010).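 Note: cells exposed to compound for about 90 hours before reading.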 The class given is functional, cell-based.
The test system of assay [23] is Streptococcus. Briefly: GAS UMAA2166 growth inhibition – luminescence, BacTiterGlo, counter-screen for streptokinase expression inhibitor project, dose response (AID 1915).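 Note: potency for reduction of bacterial viability or growth.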 The assay is classed as functional, organism-based.
Assay [24] is described as follows: Luminescence Cell-Based Dose Retest to Confirm Inhibitors of Cancer Stem Cells. [Related pubchem assays (depositor defined):AID2717, AID2721]. The assay is classed as functional. The settings on record: Homo sapiens.
A short description of assay [25]: general mammalian cell viability loss – inhibitor set, cherry-pick, set 2, cytotoxicity control for miR-122 modulator project, dose response (AID 720697). The assay is classed as functional, cell-based.
Assay [26] can be described thus: cells. As to conditions: A549.

As a reminder, the EC50 is the concentration that produces a half-maximal response. What is called IC50 is the concentration needed to halve the response being measured. As usually defined, the AC50 is the midpoint of the concentration-response curve, whichever way the signal moves.

Activity calls are given as the source filed them.

Sequence of SWI/SNF-related matrix-associated actin-dependent regulator of chromatin subfamily A member 2 (P51531 whole entry): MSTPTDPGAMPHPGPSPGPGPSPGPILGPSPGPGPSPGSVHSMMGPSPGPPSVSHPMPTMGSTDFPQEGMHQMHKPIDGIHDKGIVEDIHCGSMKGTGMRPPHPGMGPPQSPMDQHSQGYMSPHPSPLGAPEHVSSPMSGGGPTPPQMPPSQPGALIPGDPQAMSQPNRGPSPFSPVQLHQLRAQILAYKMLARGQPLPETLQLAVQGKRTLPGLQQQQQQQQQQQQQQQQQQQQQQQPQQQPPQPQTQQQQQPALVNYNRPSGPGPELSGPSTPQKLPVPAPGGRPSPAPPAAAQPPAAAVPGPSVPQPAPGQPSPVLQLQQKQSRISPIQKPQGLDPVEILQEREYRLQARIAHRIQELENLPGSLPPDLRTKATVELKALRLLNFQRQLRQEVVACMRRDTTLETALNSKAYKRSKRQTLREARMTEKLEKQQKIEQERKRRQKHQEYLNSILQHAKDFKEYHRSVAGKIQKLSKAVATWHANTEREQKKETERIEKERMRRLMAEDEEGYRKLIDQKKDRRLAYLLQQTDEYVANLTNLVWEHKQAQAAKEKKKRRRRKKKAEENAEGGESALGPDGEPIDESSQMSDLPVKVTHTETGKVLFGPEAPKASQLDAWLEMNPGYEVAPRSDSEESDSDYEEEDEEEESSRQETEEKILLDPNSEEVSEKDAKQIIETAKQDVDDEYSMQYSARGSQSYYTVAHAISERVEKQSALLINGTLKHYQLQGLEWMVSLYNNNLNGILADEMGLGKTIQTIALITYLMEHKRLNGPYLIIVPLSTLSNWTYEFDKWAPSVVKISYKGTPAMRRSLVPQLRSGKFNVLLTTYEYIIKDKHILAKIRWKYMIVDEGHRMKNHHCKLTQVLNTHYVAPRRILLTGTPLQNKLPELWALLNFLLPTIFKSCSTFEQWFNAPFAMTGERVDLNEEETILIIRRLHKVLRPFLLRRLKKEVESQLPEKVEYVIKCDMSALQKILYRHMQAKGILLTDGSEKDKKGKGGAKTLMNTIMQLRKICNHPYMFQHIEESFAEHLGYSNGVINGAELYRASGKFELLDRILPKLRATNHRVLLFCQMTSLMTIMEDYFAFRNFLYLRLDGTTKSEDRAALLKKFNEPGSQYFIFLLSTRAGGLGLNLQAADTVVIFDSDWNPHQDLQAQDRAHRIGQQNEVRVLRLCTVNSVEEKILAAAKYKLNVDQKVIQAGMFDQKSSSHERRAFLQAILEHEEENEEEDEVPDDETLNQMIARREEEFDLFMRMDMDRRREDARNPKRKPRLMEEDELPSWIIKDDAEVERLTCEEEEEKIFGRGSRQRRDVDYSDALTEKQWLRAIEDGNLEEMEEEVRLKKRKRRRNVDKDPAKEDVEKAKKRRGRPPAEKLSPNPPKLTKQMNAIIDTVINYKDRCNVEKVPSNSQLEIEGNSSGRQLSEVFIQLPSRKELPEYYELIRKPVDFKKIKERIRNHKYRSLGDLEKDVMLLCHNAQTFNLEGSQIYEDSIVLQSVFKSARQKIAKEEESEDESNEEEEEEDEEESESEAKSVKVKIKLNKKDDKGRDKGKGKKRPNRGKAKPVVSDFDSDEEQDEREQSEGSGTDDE

On to `O=C1C(Sc2ccccc2)=C[C@@]2(O)CC[C@@H](O)[C@]1(Sc1ccccc1)[C@H]2O`, for which the EC50 in assay [1] and in assay [2] was > 91.3 µM (inactive) throughout.

Consider `O=C(/C=C\c1cn(-c2ccccc2)nc1-c1ccccc1)Nc1nccs1`, for which the EC50 was 7.09 µM (active) in [3] and 7.96 µM (active) in [4]. Further, the figures for the IC50 in assay [5] and in assay [6] were 32.1 µM (inactive) and 26.2 µM (inactive), respectively.

As for `O=C(N/N=C/c1ccc2c(c1)OCO2)c1ccccn1`, the IC50 in assay [7] and in [8] was > 67.5 µM (inactive) in each case.

`O=C(Nc1ccn(Cc2ccccc2)n1)c1n[nH]c([N+](=O)[O-])c1Cl`: the EC50 in assay [9] is > 260 µM (inconclusive); in [11], > 67.5 µM (inactive). Further, the IC50 in assay [10] is 4.37 µM (active).

For the compound `COc1ccc(C(=O)NCCC2=CCCCC2)cc1`, the figures for the EC50 in assay [12] and in assay [13] were 8.58 µM (active) and 8.69 µM (inconclusive), respectively. The values for the IC50 in assay [7] and in assay [8] were > 67.5 µM (inactive) and > 0.278 µM (active), respectively.

In the case of `NC(=O)c1ccc(/N=C2\C(=O)Nc3ccc([N+](=O)[O-])cc32)cc1`, the IC50 is 27.5 µM (active) in assay [14], 4.25 µM (active) in [15] and 3.98 µM (active) in [16].

Turning to `Cn1c(NC(=O)CCc2ccccc2)cc(=O)n(C)c1=O`, the figures for the EC50 in assay [17], in assay [18] and in assay [11] were 4.41 µM (inconclusive), 9.93 µM (active) and > 67.5 µM (inactive), respectively.

Turning to `C/C(=N\Nc1cc(N2CCCCC2)nc(C)n1)c1ccc(Br)cc1`, the EC50 in assay [19] was 6.7 µM (active); in assay [20] it was 46.7 µM (inconclusive); in [21], 0.7 µM (active); in assay [22] it was > 60 µM (not active); in assay [23], > 50 µM (not active). Further, the AC50 in [24] was 5.52 µM (active); in [25], 5.41 µM (active).

With `O=C(Nc1ccc2c(c1)OCCO2)c1ccc(NC(=O)C2CCCO2)cc1` (centres undefined), the AC50 in [26] is > 52 µM (inactive).

The values are drawn from ChEMBL document CHEMBL1201862, “PubChem BioAssay data set” (2004).
